≈ marks a conversion by molar mass, not a printed value.
Tests used:
[1] = system: Mycobacterium tuberculosis; assay: microbe, parasite or virus in culture; type: functional; conditions: H37Ra
[2] = target: T1, Bifunctional epoxide hydrolase 2 (Homo sapiens, UniProt P34913);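 further: recombinant enzyme with CMNPC substrate, fluorescence readout of 6-methoxy-2-naphthaldehyde formed over a 10 min reaction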
T1 sequence (P34913 whole entry): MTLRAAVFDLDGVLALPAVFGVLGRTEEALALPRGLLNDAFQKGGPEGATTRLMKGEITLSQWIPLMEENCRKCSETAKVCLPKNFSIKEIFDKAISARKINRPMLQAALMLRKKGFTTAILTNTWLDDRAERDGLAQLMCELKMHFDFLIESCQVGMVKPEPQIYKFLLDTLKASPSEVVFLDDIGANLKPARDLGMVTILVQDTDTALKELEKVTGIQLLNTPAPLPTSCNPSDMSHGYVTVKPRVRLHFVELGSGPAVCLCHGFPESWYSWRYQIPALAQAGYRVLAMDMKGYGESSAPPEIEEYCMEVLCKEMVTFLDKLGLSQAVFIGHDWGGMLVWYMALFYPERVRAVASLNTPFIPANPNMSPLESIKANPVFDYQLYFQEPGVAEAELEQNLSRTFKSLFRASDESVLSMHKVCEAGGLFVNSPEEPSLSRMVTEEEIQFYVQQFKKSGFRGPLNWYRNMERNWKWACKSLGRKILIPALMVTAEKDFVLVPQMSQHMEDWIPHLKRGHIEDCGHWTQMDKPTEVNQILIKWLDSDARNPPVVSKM

Structure (SMILES)	MIC [1] [µg/mL]	IC50 [2] [nM]
O=C(Nc1ccc(OCCN2CCOCC2)c(Cl)c1)NC12CC3CC(CC(C3)C1)C2	27 (≈ 62.2 µM)	0.6
CC(C)c1ccc(NC(=O)NC2CCCCC2)cc1	3.25 (≈ 12.5 µM)	
COc1ccc(NC(=O)NC23CC4CC(CC(C4)C2)C3)cc1	1.88 (≈ 6.26 µM)	
CCCCOCCCCCNC(=O)NC12CC3CC(CC(C3)C1)C2	2.1 (≈ 6.24 µM)	
COc1cc(NC(=O)NC23CC4CC(CC(C4)C2)C3)cc(C(F)(F)F)c1	0.58 (≈ 1.57 µM)	1.7
O=C(Nc1cccc(C(F)(F)F)c1)NC12CC3CC(CC(C3)C1)C2	0.8 (≈ 2.36 µM)	2.4
O=C(Nc1cccc(C(=O)Nc2ccc(N3CCOCC3)cc2)c1)NC12CC3CC(CC(C3)C1)C2	> 95	74.2
CCCCCCc1ccc(NC(=O)NC2CCCCC2)cc1	1.89 (≈ 6.25 µM)	1.8
CCc1ccc(OCCOCCOCCCCCNC(=O)NC23CC4CC(CC(C4)C2)C3)cc1	24 (≈ 50.8 µM)	
COc1ccccc1NC(=O)NC12CC3CC(CC(C3)C1)C2	30 (≈ 99.9 µM)	
O=C(Nc1ccc(OCCCCN2CCOCC2)cc1)NC12CC3CC(CC(C3)C1)C2	21 (≈ 49.1 µM)	
C=C(CCCNC(=O)NC12CC3CC(CC(C3)C1)C2)OCCOCCOCC	> 79	67
CC(C)OCCOCCOCCCCCNC(=O)NC12CC3CC(CC(C3)C1)C2	21 (≈ 51.1 µM)	4.1
O=C(Nc1ccc(OC(=O)c2ccccc2)cc1)NC12CC3CC(CC(C3)C1)C2	39 (≈ 99.9 µM)	
CO[C@H]1CC[C@H](NC(=O)NC23CC4CC(CC(C4)C2)C3)CC1	> 61	
O=C(Nc1ccc(I)cc1)NC12CC3CC(CC(C3)C1)C2	0.6 (≈ 1.51 µM)	0.5
O=C(NC12CC3CC(CC(C3)C1)C2)N[C@H]1CC[C@@H](Oc2ccc(F)cc2)CC1	> 20	
CCCC(C)OCCOCCOCCCCCNC(=O)NC12CC3CC(CC(C3)C1)C2 (centres undefined)	> 91	6.2
O=C(Nc1ccc(C(F)(F)F)cc1)Nc1ccc(C(F)(F)F)cc1	2.18 (≈ 6.26 µM)	15
O=C(Nc1cccc(C(=O)N2CCC(N3CCOCC3)CC2)c1)NC12CC3CC(CC(C3)C1)C2	> 93	
CCOCCOCCOCCCCCCNC(=O)NC12CC3CC(CC(C3)C1)C2	82 (≈ 200 µM)	1.2
CC(=O)c1cccc(NC(=O)NC23CC4CC(CC(C4)C2)C3)c1	3.9 (≈ 12.5 µM)	1.3
COC(=O)c1cc(NC(=O)NC23CC4CC(CC(C4)C2)C3)ccc1O	1.1 (≈ 3.19 µM)	

Structure (SMILES)	MIC [1] [µg/mL]	IC50 [2] [nM]
O=C(Nc1ccc(OC(F)(F)F)cc1)NC1CCCCC1	0.94 (≈ 3.11 µM)	0.8
O=C(Nc1ccc(CC(=O)c2ccccc2)cc1)NC12CC3CC(CC(C3)C1)C2	2.43 (≈ 6.25 µM)	4.7
C=CCO[C@H]1CC[C@@H](NC(=O)NC23CC4CC(CC(C4)C2)C3)CC1	> 66	1.3
O=C(NC1CCCC(C(=O)N2CCOCC2)C1)NC12CC3CC(CC(C3)C1)C2 (centres undefined)	> 81	8.2
O=C(NCCCN1CCOCC1)NC12CC3CC(CC(C3)C1)C2	> 64	610
CC(C)Oc1cc(F)c(CO[C@H]2CC[C@@H](NC(=O)NC34CC5CC(CC(C5)C3)C4)CC2)c(F)c1	6.7 (≈ 14.1 µM)	
CC(=O)Nc1ccc(NC(=O)NC23CC4CC(CC(C4)C2)C3)cc1	65 (≈ 199 µM)	
O=C(NC12CC3CC(CC(C3)C1)C2)N[C@H]1CC[C@H](Oc2ccc(C(F)(F)F)cn2)CC1	> 88	4.8
O=C(NC12CC3CC(CC(C3)C1)C2)N[C@H]1CC[C@H](OCCCN2CCOCC2)CC1	> 42	
O=C(Nc1cccc(C(=O)OCc2ccccc2)c1)NC12CC3CC(CC(C3)C1)C2	0.3 (≈ 0.742 µM)	
CC(=O)c1ccc(NC(=O)NC23CC4CC(CC(C4)C2)C3)cc1	2 (≈ 6.4 µM)	6.3
O=C(Nc1cccc(OCCCCN2CCOCC2)c1)NC12CC3CC(CC(C3)C1)C2	21 (≈ 49.1 µM)	
O=C(Nc1ccc(OC2CCOC2=O)cc1)NC12CC3CC(CC(C3)C1)C2 (centres undefined)	> 37	
CCOCCOCCOc1ccc(C(OC(=O)CCCNC(=O)NC23CC4CC(CC(C4)C2)C3)c2ccccc2)cc1 (centres undefined)	> 116	5.1
O=C(Nc1ccc(O)cc1)NC12CC3CC(CC(C3)C1)C2	57 (≈ 199 µM)	
COC(=O)c1ccc(NC(=O)N[C@H]2CC[C@@H](Oc3cc(C(=O)OC)cc(C(=O)OC)c3)CC2)cc1	3.03 (≈ 6.25 µM)	3.8
O=C(Nc1ccc(Cl)c(Cl)c1)Nc1ccc(Cl)c(Cl)c1	2.19 (≈ 6.26 µM)	28.1
CCC(=O)Oc1ccc(NC(=O)NC23CC4CC(CC(C4)C2)C3)cc1	> 68	
CSc1ccc(NC(=O)NC23CC4CC(CC(C4)C2)C3)cc1	1.5 (≈ 4.74 µM)	1.6
O=C(Nc1cccc(OC(F)(F)C(F)F)c1)NC12CC3CC(CC(C3)C1)C2	1.4 (≈ 3.62 µM)	1.5
O=C(NC12CC3CC(CC(C3)C1)C2)N[C@H]1CC[C@H](OCC2CCCCC2)CC1	> 78	
O=C(NCCCCCOCCN1CCOCC1)NC12CC3CC(CC(C3)C1)C2	> 79	2.3
O=C(Nc1ccccc1OCCCCN1CCOCC1)NC12CC3CC(CC(C3)C1)C2	21 (≈ 49.1 µM)	

Structure (SMILES)	MIC [1] [µg/mL]	IC50 [2] [nM]
CC(=O)Oc1ccc(NC(=O)NC23CC4CC(CC(C4)C2)C3)cc1	66 (≈ 201 µM)	
O=C(NC12CC3CC(CC(C3)C1)C2)N[C@H]1CC[C@@H](OCc2c(F)cccc2F)CC1	42 (≈ 100 µM)	
O=C(Nc1ccc(Oc2ccc(F)cc2)cc1)NC12CC3CC(CC(C3)C1)C2	0.6 (≈ 1.58 µM)	
O=C(NCC#CCOc1ccc(F)cc1)NC12CC3CC(CC(C3)C1)C2	0.7 (≈ 1.96 µM)	
CN1CCN(CCCOc2ccc(NC(=O)NC34CC5CC(CC(C5)C3)C4)cc2)CC1	62 (≈ 145 µM)	
O=C(NC12CC3CC(CC(C3)C1)C2)N[C@H]1CC[C@H](Oc2cccc(F)c2)CC1	14 (≈ 36.2 µM)	
CCC(=O)Oc1cccc(NC(=O)NC23CC4CC(CC(C4)C2)C3)c1	17 (≈ 49.6 µM)	
CN1CCN(CCCCOc2cccc(NC(=O)NC34CC5CC(CC(C5)C3)C4)c2)CC1	44 (≈ 99.9 µM)	
O=C(O)CCCc1ccc(NC(=O)NC23CC4CC(CC(C4)C2)C3)cc1	36 (≈ 101 µM)	
O=C(NC12CC3CC(CC(C3)C1)C2)N[C@H]1CC[C@H](OCc2ccccc2)CC1	> 77	
O=C(NC12CC3CC(CC(C3)C1)C2)N[C@H]1CC[C@H](O)CC1	> 58	
O=C(Nc1cccc(OCCCN2CCOCC2)c1)NC12CC3CC(CC(C3)C1)C2	32 (≈ 77.4 µM)	
O=C(NC12CC3CC(CC(C3)C1)C2)N[C@H]1CC[C@@H](Oc2cc(F)cc(F)c2)CC1	10 (≈ 24.7 µM)	
CCCCOC(=O)CCCCCCCCCCCNC(=O)NC12CC3CC(CC(C3)C1)C2	5.61 (≈ 12.5 µM)	
CC(C)Oc1cc(F)c(CO[C@H]2CC[C@H](NC(=O)NC34CC5CC(CC(C5)C3)C4)CC2)c(F)c1	11.9 (≈ 25 µM)	
O=C(Nc1ccc(-n2ccnc2)cc1)NC12CC3CC(CC(C3)C1)C2	> 44	
O=C(Nc1ccc(OCCN2CCOCC2)cc1)NC12CC3CC(CC(C3)C1)C2	> 30	
O=C(NCCCCOc1ccc(F)cc1)NC12CC3CC(CC(C3)C1)C2	2.25 (≈ 6.24 µM)	
O=C(NC12CC3CC(CC(C3)C1)C2)N[C@H]1CC[C@H](Oc2cc(F)cc(F)c2)CC1	> 41	
O=C(Nc1cccc(Oc2ccc(F)cc2)c1)NC12CC3CC(CC(C3)C1)C2	2.5 (≈ 6.57 µM)	
C[C@H](NC(=O)Cc1ccc(NC(=O)NC23CC4CC(CC(C4)C2)C3)cc1)C(=O)N[C@@H](Cc1c[nH]c2ccccc12)C(=O)O	66 (≈ 113 µM)	
COc1ccc(O[C@H]2CC[C@@H](NC(=O)NC34CC5CC(CC(C5)C3)C4)CC2)cc1	> 80	
O=C(Nc1cccc(C(=O)NCCN2CCOCC2)c1)NC12CC3CC(CC(C3)C1)C2	> 30	

Structure (SMILES)	MIC [1] [µg/mL]	IC50 [2] [nM]
COc1ccc(NC(=O)NC23CC4CC(CC(C4)C2)C3)cc1O	32 (≈ 101 µM)	
CC(C)(C)OC(=O)N1CCN(CCCOc2ccc(NC(=O)NC34CC5CC(CC(C5)C3)C4)cc2)CC1	6.21 (≈ 12.1 µM)	
O=C(Nc1ccccc1)NC12CC3CC(CC(C3)C1)C2	14 (≈ 51.8 µM)	
CO[C@H]1CC[C@@H](NC(=O)NC23CC4CC(CC(C4)C2)C3)CC1	> 61	
O=C(Nc1ccccc1OCCCN1CCOCC1)NC12CC3CC(CC(C3)C1)C2	21 (≈ 50.8 µM)	
O=C(NC12CC3CC(CC(C3)C1)C2)N[C@H]1CC[C@H](Oc2ccc(F)cc2)CC1	> 39	
CCOCCOCCOc1ccc(NC(=O)NC23CC4CC(CC(C4)C2)C3)cc1	10 (≈ 24.8 µM)	
COC(=O)c1ccc(NC(=O)NC23CC4CC(CC(C4)C2)C3)cc1	2 (≈ 6.09 µM)	
COC(=O)c1cccc(NC(=O)NC23CC4CC(CC(C4)C2)C3)c1	1.2 (≈ 3.65 µM)	
O=C(NC12CC3CC(CC(C3)C1)C2)N[C@H]1CC[C@H](OCc2ccc(Br)cc2)CC1	> 92	
O=C(Nc1ccc(C(=O)O)cc1)N[C@H]1CC[C@@H](Oc2ccc(F)cc2)CC1	4.65 (≈ 12.5 µM)	
CCOCCOCCOc1cccc(NC(=O)NC23CC4CC(CC(C4)C2)C3)c1	2.52 (≈ 6.26 µM)	
O=C(Nc1cccc(OC(=O)c2ccccc2)c1)NC12CC3CC(CC(C3)C1)C2	2.4 (≈ 6.15 µM)	
O=C(Nc1cccc(C(=O)N2CCOCC2)c1)NC12CC3CC(CC(C3)C1)C2	> 77	
O=C(NC12CC3CC(CC(C3)C1)C2)N[C@H]1CC[C@H](Oc2ccc(Br)cc2)CC1	> 89	
COc1ccc(O[C@H]2CC[C@H](NC(=O)NC34CC5CC(CC(C5)C3)C4)CC2)cc1	> 80	
CCCCCCCOCCNC(=O)NC12CC3CC(CC(C3)C1)C2	2.1 (≈ 6.24 µM)	
CCOC(=O)C(C)Oc1ccc(NC(=O)NC23CC4CC(CC(C4)C2)C3)cc1 (centres undefined)	19 (≈ 49.2 µM)	
CC(=O)c1ccccc1NC(=O)NC12CC3CC(CC(C3)C1)C2	> 3.1	
CCOCCOCCOCCCCCNC(=O)NC12CC3CC(CC(C3)C1)C2	> 79	

Source: ChEMBL document CHEMBL2029208 (Bioorg Med Chem, 2012)
